According to PMC7854729 (Nature Communications, 2021):
Several values for one entry are separate records, joined by “and”; a condition that tells them apart may be missing. Equal entries are not always repeated. Where two headings read alike, the source gives them in different places.

Legend:
SARS-CoV-2 = assay: microbe, parasite or virus in culture; assay type: cell-based, SARS-CoV-2 (nCoV/Washington/1/2020) in Vero E6 cells; settings: for EC50: Severe acute respiratory syndrome coronavirus 2, Vero C1008, 24 h; for Percent Spike Positive Cells: relative to DMSO treated cells, single replicates
SARS-CoV = settings: cited from earlier work
PLpro from MERS = settings: cited from earlier work
Vero E6 cells = settings: cited from earlier work
SARS-CoV-2 PLpro = SARS-CoV-2 PLpro (Severe acute respiratory syndrome coronavirus 2, UniProt P0DTD1); assay: biochemical

Cc1ccc(N)cc1C(=O)N[C@H](C)c1cccc2ccccc12 [Compound 1, 5-amino-2-methyl-N-[(1R)-1-naphthalen-1-ylethyl]benzamide]
inhibition of virus replication (SARS-CoV-2): inhibiting virus replication | EC50 (SARS-CoV-2): 1.4 ± 0.65 µM | potency in SARS-CoV-infected Vero E6 cells (SARS-CoV): good potency | inhibition of MERS PLpro (PLpro from MERS): not inhibited | cytotoxicity (Vero E6 cells): low cytotoxicity

CCCCNC(=O)Nc1ccc(C)c(C(=O)N[C@H](C)c2cccc3ccccc23)c1 [Compound 5, 5-(butylcarbamoylamino)-2-methyl-N-[(1R)-1-naphthalen-1-ylethyl]benzamide]
IC50 (SARS-CoV-2 PLpro; IC50): 16.8 µM and 32.8 µM | PLpro assay signal (source data Figure 2, single replicates) (SARS-CoV-2 PLpro; Log(M) -3.30103, listed as 5 (Snyder539)): 225 and 216 and 235 | PLpro assay signal (source data Figure 2, single replicates) (SARS-CoV-2 PLpro; Log(M) -3.60206, listed as 5 (Snyder539)): 256 and 292 and 307 | PLpro assay signal (source data Figure 2, single replicates) (SARS-CoV-2 PLpro; Log(M) -4, listed as 5 (Snyder539)): 289 and 427 and 447 | PLpro assay signal (source data Figure 2, single replicates) (SARS-CoV-2 PLpro; Log(M) -4.30103, listed as 5 (Snyder539)): 464 and 626 and 554 | PLpro assay signal (source data Figure 2, single replicates) (SARS-CoV-2 PLpro; Log(M) -4.69897, listed as 5 (Snyder539)): 802 and 736 and 827 | PLpro assay signal (source data Figure 2, single replicates) (SARS-CoV-2 PLpro; Log(M) -5, listed as 5 (Snyder539)): 945 and 917 and 894 | PLpro assay signal (source data Figure 2, single replicates) (SARS-CoV-2 PLpro; Log(M) -5.39794, listed as 5 (Snyder539)): 1120 and 1187 and 1137 | PLpro assay signal (source data Figure 2, single replicates) (SARS-CoV-2 PLpro; Log(M) -5.69897, listed as 5 (Snyder539)): 1190 and 1202 and 1324 | PLpro assay signal (source data Figure 2, single replicates) (SARS-CoV-2 PLpro; Log(M) -6.09691, listed as 5 (Snyder539)): 1485 and 1470 and 1518 | PLpro assay signal (source data Figure 2, single replicates) (SARS-CoV-2 PLpro; Log(M) -6.39794, listed as 5 (Snyder539)): 1389 and 1269 and 1337 | EC50 (SARS-CoV-2; read-out: EC50): 2.5 µM | inhibition of virus replication (SARS-CoV-2; Vero E6, SARS-CoV-2): inhibiting virus replication | Percent Spike Positive Cells (SARS-CoV-2; [Drug] 0.1 uM): 115% | Percent Spike Positive Cells (SARS-CoV-2; [Drug] 1 uM): 115% | Percent Spike Positive Cells (SARS-CoV-2; [Drug] 10 uM): 69% and 115% and 92%

Cc1ccc(NC(=O)NC(N)=O)cc1C(=O)N[C@H](C)c1cccc2ccccc12 [Compound 2, 5-carbamylurea-2-methyl-N-[(1R)-1-naphthalen-1-ylethyl]benzamide]
PLpro assay signal (source data Figure 2, single replicates) (SARS-CoV-2 PLpro; Log(M) -3.69897, listed as 2 (Snyder495)): 60 and 59 and 86 | PLpro assay signal (source data Figure 2, single replicates) (SARS-CoV-2 PLpro; Log(M) -4, listed as 2 (Snyder495)): 70 and 66 and 64 | PLpro assay signal (source data Figure 2, single replicates) (SARS-CoV-2 PLpro; Log(M) -4.39794, listed as 2 (Snyder495)): 92 and 85 and 99 | PLpro assay signal (source data Figure 2, single replicates) (SARS-CoV-2 PLpro; Log(M) -4.69897, listed as 2 (Snyder495)): 136 and 126 and 144 | PLpro assay signal (source data Figure 2, single replicates) (SARS-CoV-2 PLpro; Log(M) -5.09691, listed as 2 (Snyder495)): 203 and 179 and 181 | PLpro assay signal (source data Figure 2, single replicates) (SARS-CoV-2 PLpro; Log(M) -5.39794, listed as 2 (Snyder495)): 314 and 305 and 289 | PLpro assay signal (source data Figure 2, single replicates) (SARS-CoV-2 PLpro; Log(M) -5.79588, listed as 2 (Snyder495)): 365 and 343 and 315 | PLpro assay signal (source data Figure 2, single replicates) (SARS-CoV-2 PLpro; Log(M) -6.09691, listed as 2 (Snyder495)): 476 and 447 and 368 | PLpro assay signal (source data Figure 2, single replicates) (SARS-CoV-2 PLpro; Log(M) -6.49485, listed as 2 (Snyder495)): 414 and 419 and 416 | PLpro assay signal (source data Figure 2, single replicates) (SARS-CoV-2 PLpro; Log(M) -6.79588, listed as 2 (Snyder495)): 421 and 453 and 465 | IC50 (SARS-CoV-2 PLpro; pH 7.3, read-out: IC50): 5.1 µM | inhibition of virus replication (SARS-CoV-2; Vero E6, SARS-CoV-2): failed

Cc1ccc(NC(=O)Oc2ccc([N+](=O)[O-])cc2)cc1C(=O)N[C@H](C)c1cccc2ccccc12 [Compound 6, 5-(((4-nitrophenoxy)carbonyl)amino)-2-methyl-N-[(1R)-1-naphthalen-1-ylethyl]benzamide]
PLpro assay signal (source data Figure 2, single replicates) (SARS-CoV-2 PLpro; Log(M) -3.30103, listed as 6 (Snyder538)): 62 and 61 and 69 | PLpro assay signal (source data Figure 2, single replicates) (SARS-CoV-2 PLpro; Log(M) -3.60206, listed as 6 (Snyder538)): 86 and 78 and 83 | PLpro assay signal (source data Figure 2, single replicates) (SARS-CoV-2 PLpro; Log(M) -4, listed as 6 (Snyder538)): 127 and 161 and 203 | PLpro assay signal (source data Figure 2, single replicates) (SARS-CoV-2 PLpro; Log(M) -4.30103, listed as 6 (Snyder538)): 120 and 170 and 193 | PLpro assay signal (source data Figure 2, single replicates) (SARS-CoV-2 PLpro; Log(M) -4.69897, listed as 6 (Snyder538)): 420 and 406 and 486 | PLpro assay signal (source data Figure 2, single replicates) (SARS-CoV-2 PLpro; Log(M) -5, listed as 6 (Snyder538)): 662 and 534 and 618 | PLpro assay signal (source data Figure 2, single replicates) (SARS-CoV-2 PLpro; Log(M) -5.39794, listed as 6 (Snyder538)): 926 and 988 and 896 | PLpro assay signal (source data Figure 2, single replicates) (SARS-CoV-2 PLpro; Log(M) -5.69897, listed as 6 (Snyder538)): 1105 and 1269 and 1030 | PLpro assay signal (source data Figure 2, single replicates) (SARS-CoV-2 PLpro; Log(M) -6.09691, listed as 6 (Snyder538)): 1318 and 1309 and 1349 | PLpro assay signal (source data Figure 2, single replicates) (SARS-CoV-2 PLpro; Log(M) -6.39794, listed as 6 (Snyder538)): 1380 and 1317 and 1379 | IC50 (SARS-CoV-2 PLpro; pH 7.3, read-out: IC50): 7 ± 0.6 µM | inhibition of virus replication (SARS-CoV-2; Vero E6, SARS-CoV-2): inhibiting virus replication | Percent Spike Positive Cells (SARS-CoV-2; [Drug] 0.1 uM): 92% and 115% (2×) | Percent Spike Positive Cells (SARS-CoV-2; [Drug] 1 uM): 115% | Percent Spike Positive Cells (SARS-CoV-2; [Drug] 10 uM): 46% and 69%

C=CC(=O)Nc1ccc(C)c(C(=O)N[C@H](C)c2cccc3ccccc23)c1 [Compound 3, 5-acrylamide-2-methyl-N-[(1R)-1-naphthalen-1-ylethyl]benzamide]
PLpro assay signal (source data Figure 2, single replicates) (SARS-CoV-2 PLpro; Log(M) -3.69897, listed as 3 (Snyder530)): 91 and 88 and 87 | PLpro assay signal (source data Figure 2, single replicates) (SARS-CoV-2 PLpro; Log(M) -4, listed as 3 (Snyder530)): 107 (2×) and 106 | PLpro assay signal (source data Figure 2, single replicates) (SARS-CoV-2 PLpro; Log(M) -4.39794, listed as 3 (Snyder530)): 175 (2×) and 163 | PLpro assay signal (source data Figure 2, single replicates) (SARS-CoV-2 PLpro; Log(M) -4.69897, listed as 3 (Snyder530)): 282 and 274 and 281 | PLpro assay signal (source data Figure 2, single replicates) (SARS-CoV-2 PLpro; Log(M) -5.09691, listed as 3 (Snyder530)): 401 and 387 and 371 | PLpro assay signal (source data Figure 2, single replicates) (SARS-CoV-2 PLpro; Log(M) -5.39794, listed as 3 (Snyder530)): 551 and 511 and 480 | PLpro assay signal (source data Figure 2, single replicates) (SARS-CoV-2 PLpro; Log(M) -5.79588, listed as 3 (Snyder530)): 638 and 706 and 719 | PLpro assay signal (source data Figure 2, single replicates) (SARS-CoV-2 PLpro; Log(M) -6.09691, listed as 3 (Snyder530)): 726 and 781 and 797 | PLpro assay signal (source data Figure 2, single replicates) (SARS-CoV-2 PLpro; Log(M) -6.49485, listed as 3 (Snyder530)): 808 and 740 and 787 | PLpro assay signal (source data Figure 2, single replicates) (SARS-CoV-2 PLpro; Log(M) -6.79588, listed as 3 (Snyder530)): 765 and 796 and 803 | IC50 (SARS-CoV-2 PLpro; pH 7.3, read-out: IC50): 6.4 µM | inhibition of virus replication (SARS-CoV-2; Vero E6, SARS-CoV-2): failed
